Experimental data reported in PubChem BioAssay (NCI).
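GI50 is the concentration that inhibits growth by half. TGI is the concentration that stops growth completely.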

What was measured:
Test in all cases: growth of human tumour cells (NCI), 384-well format
[1] = system: 786-0 renal
[2] = system: A498 renal
[3] = system: A549 NSCLC
[4] = system: ACHN renal
[5] = system: BT-549 breast
[6] = system: CAKI-1 renal
[7] = system: CCRF-CEM leukemia
[8] = system: COLO 205 colon
[9] = system: DU-145 prostate
[10] = system: EKVX NSCLC
[11] = system: HCC-2998 colon
[12] = system: HCT-116 colon
[13] = system: HCT-15 colon
[14] = system: HL-60(TB) leukemia
[15] = system: HOP-62 NSCLC
[16] = system: HOP-92 NSCLC
[17] = system: HS 578T breast
[18] = system: HT29 colon
[19] = system: IGROV1 ovarian
[20] = system: K-562 leukemia
[21] = system: KM12 colon
[22] = system: LOX IMVI melanoma
[23] = system: M14 melanoma
[24] = system: MALME-3M melanoma
[25] = system: MCF7 breast
[26] = system: MDA-MB-231 breast
[27] = system: MDA-MB-435 melanoma
[28] = system: MDA-MB-468 breast
[29] = system: MOLT-4 leukemia
[30] = system: NCI-H226 lung
[31] = system: NCI-H23 lung
[32] = system: NCI-H322M lung
[33] = system: NCI-H460 NSCLC
[34] = system: NCI-H522 lung
[35] = system: NCI/ADR-RES ovarian
[36] = system: OVCAR-3 ovarian
[37] = system: OVCAR-4 ovarian
[38] = system: OVCAR-5 ovarian
[39] = system: OVCAR-8 ovarian
[40] = system: PC-3 prostate
[41] = system: RPMI-8226 leukemia
[42] = system: RXF 393 renal
[43] = system: SF-268 CNS
[44] = system: SF-295 CNS
[45] = system: SF-539 CNS
[46] = system: SK-MEL-2 melanoma
[47] = system: SK-MEL-28 melanoma
[48] = system: SK-MEL-5 melanoma
[49] = system: SK-OV-3 ovarian
[50] = system: SN12C renal
[51] = system: SNB-19 CNS
[52] = system: SNB-75 CNS
[53] = system: SW-620 colon
[54] = system: T-47D breast
[55] = system: TK-10 renal
[56] = system: U251 glioblastoma
[57] = system: UACC-257 melanoma
[58] = system: UACC-62 melanoma
[59] = system: UO-31 renal

For `CCn1nc(C2CCN(C(=O)CCO)CC2)nc1-c1cnc(N)c(-c2nnc(C(C)(C)C)o2)n1`, the GI50 [1] was 7.59 µM, the TGI [1] was greater than 100 µM and the GI50 [2] was 18.1 µM. The TGI [2] was greater than 100 µM, the GI50 [3] was 5.24 µM and the TGI [3] was greater than 100 µM. The GI50 [4] was 15.5 µM, the TGI [4] was greater than 100 µM and the GI50 [5] was 6.24 µM. The TGI [5] was 54.3 µM, the GI50 [6] was 4.7 µM and the TGI [6] was greater than 100 µM. The GI50 [7] was 6.7 µM, the TGI [7] was 23.4 µM and the GI50 [8] was 6.8 µM. It also gave a TGI [8] of 23.9 µM, a GI50 [9] of 13.7 µM and a TGI [9] of 100 µM. For the same molecule, the GI50 [10] was 3.08 µM, the TGI [10] was 30 µM and the GI50 [11] was 7.79 µM. The TGI [11] was 47 µM, the GI50 [12] was 23.2 µM and the TGI [12] was greater than 100 µM. The GI50 [13] was 15.8 µM, the TGI [13] was greater than 100 µM and the GI50 [14] was 0.377 µM. It also gave a TGI [14] of 12.2 µM, a GI50 [15] of 42.7 µM and a TGI [15] greater than 100 µM. For the same molecule, the GI50 [16] was 3.35 µM, the TGI [16] was greater than 100 µM and the GI50 [17] was 6.89 µM. The TGI [17] was 31.8 µM, the GI50 [18] was 3.02 µM and the TGI [18] was 25.5 µM. The GI50 [19] was 0.32 µM, the TGI [19] was 1.81 µM and the GI50 [20] was 17.3 µM. It also gave a TGI [20] of 44.7 µM, a GI50 [21] of 13.3 µM and a TGI [21] of 32.3 µM. The GI50 [22] was 10.1 µM, the TGI [22] was 23.8 µM and the GI50 [23] was 16 µM. It also gave a TGI [23] greater than 100 µM, a GI50 [24] of 7.64 µM and a TGI [24] of 59.7 µM. It also gave a GI50 [25] of 0.2 µM, a TGI [25] greater than 100 µM and a GI50 [26] of 80.9 µM. For the same molecule, the TGI [26] was greater than 100 µM, the GI50 [27] was 11.3 µM and the TGI [27] was greater than 100 µM. The GI50 [28] was 2.8 µM, the TGI [28] was 17.1 µM and the GI50 [29] was 1.11 µM. For the same molecule, the TGI [29] was 8.87 µM, the GI50 [30] was 24.6 µM and the TGI [30] was greater than 100 µM. The GI50 [31] was 16.7 µM, the TGI [31] was 73.7 µM and the GI50 [32] was 5 µM. For the same molecule, the TGI [32] was greater than 100 µM, the GI50 [33] was 1.19 µM and the TGI [33] was greater than 100 µM. For the same molecule, the GI50 [34] was 15.1 µM, the TGI [34] was 38.6 µM and the GI50 [35] was 19.4 µM. The TGI [35] was 84.1 µM, the GI50 [36] was 7 µM and the TGI [36] was 22.1 µM. The GI50 [37] was 32.9 µM, the TGI [37] was greater than 100 µM and the GI50 [38] was 10.7 µM. It also gave a TGI [38] greater than 100 µM, a GI50 [39] of 29.8 µM and a TGI [39] greater than 100 µM. It also gave a GI50 [40] of 3.65 µM, a TGI [40] greater than 100 µM and a GI50 [41] of 16.5 µM. It also gave a TGI [41] of 30.9 µM, a GI50 [42] of 2.42 µM and a TGI [42] of 15.7 µM. For the same molecule, the GI50 [43] was 24.4 µM, the TGI [43] was greater than 100 µM and the GI50 [44] was 0.993 µM. The TGI [44] was greater than 100 µM, the GI50 [45] was 16.6 µM and the TGI [45] was greater than 100 µM. The GI50 [46] was 17.3 µM, the TGI [46] was greater than 100 µM and the GI50 [47] was 5.59 µM. For the same molecule, the TGI [47] was greater than 100 µM, the GI50 [48] was 8.62 µM and the TGI [48] was 36.9 µM. The GI50 [49] was 0.599 µM, the TGI [49] was 14.8 µM and the GI50 [50] was 5.27 µM. It also gave a TGI [50] greater than 100 µM, a GI50 [51] of 35.2 µM and a TGI [51] greater than 100 µM. It also gave a GI50 [52] of 1.13 µM, a TGI [52] of 13.2 µM and a GI50 [53] of 34.4 µM. The TGI [53] was greater than 100 µM, the GI50 [54] was 0.17 µM and the TGI [54] was 0.832 µM. The GI50 [55] was 2.71 µM, the TGI [55] was 76.4 µM and the GI50 [56] was 41.7 µM. For the same molecule, the TGI [56] was greater than 100 µM, the GI50 [57] was 22.2 µM and the TGI [57] was greater than 100 µM. For the same molecule, the GI50 [58] was 6.81 µM, the TGI [58] was greater than 100 µM and the GI50 [59] was 4.31 µM. For the same molecule, the TGI [59] was 77.2 µM.
